“Also recorded” adds a separate entry of the source. Where two headings read alike, the source gives them in different places. Bridge positions count the residues as written; N and C are the ends. Peptide text beside a SMILES is read from it.
Experiments:
KLK2 = KLK2 (Homo sapiens, UniProt P20151); experiment: Protein proteolysis: fibrinogen digestion by KLK2; assay type: biochemical; conditions: up to a concentration of 2 μM
bovine plasminogen = molecular target: T1, bovine plasminogen (Bos taurus, UniProt P06868); experiment: Inhibitor kinetics: plasminogen amidolytic activity; assay type: biochemical; conditions: substrate L-pNA, BAPNA (0.2 mM)
T1 construct: purchased Sigma Chemicals; host or cells: bovine plasma
Protocol: (§1) All enzymes and substrates were obtained from Sigma Chemicals if not otherwise specified. […] The release of pNa moiety was monitored as described above for 7 minutes with each point being the average of three independent triplicate reactions. IC50 was determined using the Prism 5 software suite (GraphPad software Inc.).

trypsin = molecular target: T2, trypsin (Bos taurus, UniProt P00760); experiment: Protein proteolysis: fibrinogen digestion by trypsin (SDS-PAGE); assay type: biochemical, bovine; conditions: up to a concentration of 2 μM
T2 construct: purchased Sigma Chemicals
Protocol: Fibrinogen was solubilised in assay buffer to a final concentration of 1 mg/ml and digested with KLK4 (+/−inhibitor) over a period of 90 minutes at 37° C. Typically assays consisted of 5 μM protein substrate and 2.5 nM KLK4 protein or 1 nM trypsin made up to a final volume of 8 μl with assay buffer. Proteolysis was initiated by addition of KLK4 and terminated by addition of SDS PAGE sample buffer and heat denaturation at 100° C. for 5 minutes. Hydrolysis products were resolved on 10% SDS PAGE gels and compared with incubations terminated immediately after initiation (time 0), and substrate proteins incubated in assay buffer for 90 minutes in the absence of KLK4 or 4-16 mins with trypsin.

bovine β-trypsin = molecular target: T3, bovine β-trypsin (Bos taurus, UniProt P00760); experiment: Inhibitor kinetics: trypsin amidolytic activity; assay type: biochemical; conditions: trypsin; read-out: IC50
T3 construct: bovine β-trypsin (20 ng); purchased Sigma Chemicals
T3 sequence (P00760 24-246): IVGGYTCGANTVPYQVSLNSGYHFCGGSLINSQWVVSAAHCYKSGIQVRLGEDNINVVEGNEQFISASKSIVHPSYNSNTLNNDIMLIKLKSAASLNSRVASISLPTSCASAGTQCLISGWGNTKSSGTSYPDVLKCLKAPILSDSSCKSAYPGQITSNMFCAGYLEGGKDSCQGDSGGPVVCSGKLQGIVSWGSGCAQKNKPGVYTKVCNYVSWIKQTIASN
Protocol: as §1

KLK4 = KLK4 (Homo sapiens, UniProt Q9Y5K2); experiment: Inhibitor kinetics: KLK4 amidolytic activity with peptide-pNA substrates; assay type: biochemical; parameters: pro-region of PSA (KLK3), replacing the native KLK4 pro-region (N, cleaved yes); made in house
Protocol: Human recombinant KLK4 was expressed in E. coli using a previously described chimeric KLK4 plasmid construct where the native pro-region was replaced with the pro-region of PSA, enabling autoactivation. Protein was expressed as inclusion bodies which were isolated and solubilised as described previously to yield 90% pure KLK4. Protein refolding was performed by dilution into 100 volumes of refolding buffer I (2 M urea, 0.1M NaCl, 5 mM GSH, 0.5 mM GSSG, 10 mM benzamidine, 50 mM tris HCl pH 8.0, 2 mM CaCl2) over 44 hours before further dilution into 3 volumes refolding buffer II (refolding buffer I with 0.5 M urea 0.5 mM GSH, 0.05 mM GSSG, 2 mM CaCl2) over another 24 hours. Dialysis was performed as previously described (with additional 2 mM CaCl2 to reduce aggregation) before concentration using UNO sphere Q (Biorad) eluting with tris buffered saline (pH 7.5)/2 mM CaCl2. Subsequently, the material was purified to apparent homogeneity (according to coomassie blue stained SDS PAGE) by gel filtration using Sephacryl S-200 (GE Health Care) pre-equilibrated with 50 mM Tris-HCl pH 7.5, 20 mM NaCl and 2 mM CaCl2.
All enzymes and substrates were obtained from Sigma Chemicals if not otherwise specified. Bacterially expressed human KLK4 (37 ng), bovine β-trypsin (20 ng), bovine thrombin (20 ng), bovine α-chymotrypsin (0.5 μg), protease (0.5 μg; Streptomyces griseus type XIV), bovine plasminogen (0.5 μg), and human matriptase (30 ng; R&D Systems) were incubated with various concentrations of inhibitors in 200 μL assay buffer for 10 minutes prior to initiation by the addition of 100 μL of 0.3 mM of peptide-pNA substrates (FVQR-pNA: KLK4; BAPNA: trypsin, (Streptomyces griseus Type XIV Protease and bovine plasma plasminogen); Bz-Phe-Val-Arg-pNA: thrombin and matriptase; Trp-pNA: α-chymotrypsin; Leu-pNA: (Streptomyces griseus Type XIV Protease and bovine plasma plasminogen). The release of pNa moiety was monitored as described above for 7 minutes with each point being the average of three independent triplicate reactions. IC50 was determined using the Prism 5 software suite (GraphPad software Inc.).

iKLK4 = experiment: KLK4 stimulated calcium release in LMF stably expressing human PAR-2; assay type: cell-based
Protocol: (§2) Lung murine fibroblasts (LMF) from Par-1 null mice stably expressing human PAR-2 were grown to 80% confluence as previously described, washed with PBS, detached nonenzymatically, resuspended (4×10^6 cells/ml) in extracellular medium (121 mM NaCl, 5.4 mM KCl, 0.8 mM MgCl2, 1.8 mM CaCl2, 5.5 mM glucose, 25 mM HEPES (pH 7.4)) containing 0.2% (w/v) bovine serum albumin (Sigma) and then loaded with the fluorescence indicator Fura-2 acetoxymethyl ester (1.0 μM; Invitrogen) at room temperature for 60 min. Cells were then pelleted followed by resuspension in extracellular medium (without bovine serum albumin) at a concentration of 2×10^6 cells/ml for fluorescence measurements. The ratio of fluorescence at 510 nm after excitation at 340 and 380 nm was monitored (Polarstar Optima fluorescent plate reader) during treatment with bovine β trypsin (Sigma Chemicals), PAR-2 activating peptide SLIGKV (AusPep) and iKLK4 with or without SFTI-FCQR.

human PAR-2 = experiment: PAR-2 activating peptide stimulated calcium release in LMF stably expressing human PAR-2; assay type: cell-based
Protocol: as §2

KLK14 = KLK14 (Homo sapiens, UniProt Q9P0G3); experiment: Protein proteolysis: fibrinogen digestion by KLK14; assay type: biochemical; conditions: up to a concentration of 2 μM
KLK5 [1] = molecular target: T4, KLK5 (Homo sapiens, UniProt Q9Y337); experiment: Protein proteolysis: fibrinogen digestion by KLK5; assay type: biochemical; conditions: up to a concentration of 2 μM
KLK5 [2] = molecular target: T4, KLK5; experiment: Inhibitor kinetics: KLK5 amidolytic activity; assay type: biochemical; conditions: substrate Bz-PFR-pNA (0.2 mM)
bovine thrombin = molecular target: T5, bovine thrombin (Bos taurus, UniProt P00735); experiment: Inhibitor kinetics: thrombin amidolytic activity; assay type: biochemical; conditions: substrate Bz-FVR-pNA (0.2 mM)
T5 construct: purchased Sigma Chemicals
Protocol: as §1

Chain of KLK4 (Q9Y5K2 31-254): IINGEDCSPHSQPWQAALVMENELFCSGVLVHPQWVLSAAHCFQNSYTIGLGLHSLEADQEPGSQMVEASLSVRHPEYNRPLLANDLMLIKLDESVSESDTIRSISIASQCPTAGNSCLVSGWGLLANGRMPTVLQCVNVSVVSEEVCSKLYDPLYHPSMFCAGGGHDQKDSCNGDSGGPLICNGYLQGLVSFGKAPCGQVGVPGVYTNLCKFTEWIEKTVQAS
T1 sequence (P06868 27-812 limits assumed): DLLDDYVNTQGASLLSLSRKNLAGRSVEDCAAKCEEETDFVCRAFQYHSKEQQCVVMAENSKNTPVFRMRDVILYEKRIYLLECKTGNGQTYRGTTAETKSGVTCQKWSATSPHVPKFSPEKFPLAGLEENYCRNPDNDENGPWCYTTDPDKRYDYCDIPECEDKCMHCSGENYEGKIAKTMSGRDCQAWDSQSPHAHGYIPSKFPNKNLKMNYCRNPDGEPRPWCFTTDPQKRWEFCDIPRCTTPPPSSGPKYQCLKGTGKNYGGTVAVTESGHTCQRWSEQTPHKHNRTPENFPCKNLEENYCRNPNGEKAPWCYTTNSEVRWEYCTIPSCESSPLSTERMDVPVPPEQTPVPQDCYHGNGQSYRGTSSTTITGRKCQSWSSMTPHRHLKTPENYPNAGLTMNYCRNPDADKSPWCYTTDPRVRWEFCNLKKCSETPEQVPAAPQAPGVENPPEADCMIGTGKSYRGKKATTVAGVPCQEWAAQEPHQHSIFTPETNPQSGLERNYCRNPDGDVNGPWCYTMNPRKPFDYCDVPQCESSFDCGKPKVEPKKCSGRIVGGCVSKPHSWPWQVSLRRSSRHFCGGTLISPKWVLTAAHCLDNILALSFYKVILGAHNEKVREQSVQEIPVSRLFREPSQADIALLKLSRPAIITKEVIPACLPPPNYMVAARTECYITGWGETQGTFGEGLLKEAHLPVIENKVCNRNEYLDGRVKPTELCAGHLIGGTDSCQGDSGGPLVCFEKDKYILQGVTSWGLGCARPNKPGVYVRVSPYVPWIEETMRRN
T4 sequence (Q9Y337 23-293): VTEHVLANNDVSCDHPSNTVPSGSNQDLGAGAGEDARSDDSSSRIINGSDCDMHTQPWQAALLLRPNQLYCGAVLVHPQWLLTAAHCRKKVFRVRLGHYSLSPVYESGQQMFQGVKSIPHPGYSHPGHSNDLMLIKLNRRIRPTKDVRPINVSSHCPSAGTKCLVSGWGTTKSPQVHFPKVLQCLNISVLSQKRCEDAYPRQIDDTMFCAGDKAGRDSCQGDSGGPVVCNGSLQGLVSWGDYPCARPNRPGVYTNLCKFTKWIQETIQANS
T2 sequence (P00760 18-246 limits assumed): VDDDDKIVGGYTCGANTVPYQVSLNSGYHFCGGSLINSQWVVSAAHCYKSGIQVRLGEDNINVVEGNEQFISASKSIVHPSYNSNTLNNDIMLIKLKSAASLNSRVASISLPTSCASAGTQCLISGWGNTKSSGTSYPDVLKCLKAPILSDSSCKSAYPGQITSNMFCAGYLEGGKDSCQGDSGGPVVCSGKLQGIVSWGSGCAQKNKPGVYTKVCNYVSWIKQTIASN
Chain of KLK14 (Q9P0G3 35-267 limits assumed): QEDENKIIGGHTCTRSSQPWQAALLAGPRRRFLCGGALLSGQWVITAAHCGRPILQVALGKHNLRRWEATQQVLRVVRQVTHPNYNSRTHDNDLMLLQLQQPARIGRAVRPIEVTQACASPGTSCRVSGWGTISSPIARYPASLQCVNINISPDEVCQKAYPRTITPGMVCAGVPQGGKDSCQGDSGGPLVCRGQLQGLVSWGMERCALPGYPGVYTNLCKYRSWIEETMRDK
Chain of KLK2 (P20151 25-261): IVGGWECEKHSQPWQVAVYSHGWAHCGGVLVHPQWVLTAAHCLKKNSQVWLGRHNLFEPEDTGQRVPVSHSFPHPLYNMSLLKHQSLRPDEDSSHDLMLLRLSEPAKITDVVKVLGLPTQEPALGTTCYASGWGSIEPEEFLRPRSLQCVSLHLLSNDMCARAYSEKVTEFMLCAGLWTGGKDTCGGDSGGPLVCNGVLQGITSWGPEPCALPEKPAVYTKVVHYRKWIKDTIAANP

Q: What does the source list for `CC[C@H](C)[C@@H]1NC(=O)[C@@H]2CCCN2C(=O)[C@@H]2CCCN2C(=O)[C@H]([C@@H](C)CC)NC(=O)[C@H](CO)NC(=O)[C@H](CCCNC(=N)N)NC(=O)[C@H](CCC(N)=O)NC(=O)[C@@H]2CSSC[C@H](NC1=O)C(=O)N[C@@H](Cc1ccccc1)C(=O)N1CCC[C@H]1C(=O)N[C@@H](CC(=O)O)C(=O)NCC(=O)N[C@@H](Cc1ccccc1)C(=O)N2` [SFTI-FCQR] (cyclo(GFCQRSIPPICFPD); disulfide 3-11)?
A: inhibition of KLK2 digestion of fibrinogen (KLK2): no inhibition; IC50 (bovine plasminogen): did not inhibit; IC50 (bovine plasminogen; read-out: IC50): > 10 µM; inhibition of tryptic digestion of fibrinogen (trypsin): no inhibition; IC50 (bovine β-trypsin): 4.06 ± 1.09 µM; IC50 (KLK4): 0.00797 ± 0.00108 µM; Ki (KLK4): 0.00359 ± 0.00108 µM; effect on KLK4 stimulated calcium release (iKLK4; 1 μM SFTI-FCQR, iKLK4 300 nM): extremely robust blockade of calcium release; inhibition of KLK4 stimulated calcium flux (iKLK4; at a concentration of 1 mM (as printed in discussion)): complete inhibition; effect on calcium release by PAR-2 activating peptide (human PAR-2; 1 μM SFTI-FCQR, PAR-2 activating peptide 100 nM): permissive for calcium release; also recorded: no effect; effect on intracellular Ca^2+ of inhibitor alone (human PAR-2; SFTI-FCQR 1 μM without agonist): no effect; inhibition of KLK14 digestion of fibrinogen (KLK14): no inhibition; inhibition of KLK5 digestion of fibrinogen (KLK5 [1]): no inhibition; IC50 (KLK5 [2]): 2.35 ± 0.721 µM; IC50 (bovine thrombin): did not inhibit; IC50 (bovine thrombin; read-out: IC50): > 10 µM

Reference: patent US20110172163A1, “Novel Protease Inhibitors” (QUEENSLAND UNIVERSITY OF TECHNOLOGY, priority 2008, published 2011)
